The values that follow come from patent publication EP4663640A1 (Shanghai Institute of Materia Medica, Chinese Academy of …, priority 2023, dated 2024).

Where two headings read alike, the source gives them in different places.

The target in the experiment is T1, hTRPC5 (Homo sapiens, UniProt Q9UL62).
T1 construct: expressed in transfected cells; host or cells: HEK-293
T1 sequence (Q9UL62 1-973): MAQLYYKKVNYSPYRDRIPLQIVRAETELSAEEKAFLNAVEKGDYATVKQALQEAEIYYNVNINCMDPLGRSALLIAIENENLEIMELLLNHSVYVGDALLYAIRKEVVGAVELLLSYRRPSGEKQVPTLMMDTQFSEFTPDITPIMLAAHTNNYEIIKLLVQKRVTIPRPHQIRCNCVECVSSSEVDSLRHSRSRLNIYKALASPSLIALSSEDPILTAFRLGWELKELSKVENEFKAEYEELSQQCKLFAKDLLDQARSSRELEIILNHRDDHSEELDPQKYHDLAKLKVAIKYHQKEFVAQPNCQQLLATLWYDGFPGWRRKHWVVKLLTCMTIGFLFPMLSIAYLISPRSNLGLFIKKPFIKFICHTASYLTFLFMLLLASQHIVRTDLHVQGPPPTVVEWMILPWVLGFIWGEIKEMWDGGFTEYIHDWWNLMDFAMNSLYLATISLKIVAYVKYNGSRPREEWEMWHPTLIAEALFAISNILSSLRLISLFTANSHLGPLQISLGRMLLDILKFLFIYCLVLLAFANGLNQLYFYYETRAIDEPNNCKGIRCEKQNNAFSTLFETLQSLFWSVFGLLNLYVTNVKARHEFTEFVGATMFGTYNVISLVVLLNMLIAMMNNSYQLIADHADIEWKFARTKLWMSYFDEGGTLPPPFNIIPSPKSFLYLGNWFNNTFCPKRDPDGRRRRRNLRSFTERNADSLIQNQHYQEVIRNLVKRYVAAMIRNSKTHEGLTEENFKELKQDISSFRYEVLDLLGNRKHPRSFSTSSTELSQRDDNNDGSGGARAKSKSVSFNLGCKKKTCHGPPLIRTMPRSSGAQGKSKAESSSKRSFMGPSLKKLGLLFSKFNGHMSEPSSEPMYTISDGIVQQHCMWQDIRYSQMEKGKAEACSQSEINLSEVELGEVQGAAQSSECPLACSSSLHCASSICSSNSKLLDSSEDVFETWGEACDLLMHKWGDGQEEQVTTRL
As to the kind of experiment: TRPC5 inhibitory activity assay (FLIPR calcium fluorescence, Englerin A stimulation). The format is cell-based. The protocol:
HEK-293 cells expressing hTRPC3, hTRPC4 or hTRPC5 were seeded into black-bottomed 96-well plates coated with poly-lysine (PDL), with 2×10^4 cells per well. After 8 h of culture, the original culture medium was discarded, and 60 µL of Fluo-4/AM dye with a final concentration of 4 µM was added. The plates were incubated at 37 °C for 60 min, and then rinsed five times with calcium flow detection buffer. […] Then, the agonist Englerin A (EA) (MedChemExpress, Shanghai, China, final concentration of 0.3nM) was added, and the fluorescence signal was collected for 600 seconds. The fluorescence signal of the trajectory diagram is represented by F/F0, wherein F is the fluorescence signal at different time points, and F0 is the basic fluorescence signal, that is, the average value of the fluorescence signal at the first 10 time points. […] The area under the curve of the change in fluorescence intensity after adding EA was calculated. IC50 value was calculated using log[Inhibitor] vs. response - Variable slope, taking into account the area under the curve and the log value of the concentration of the compound.

Setting [1] is: Table 1, TRPC5 channels, HEK-293 cells expressing hTRPC5, read-out: FLIPR IC50.

In the case of `Cn1c(=O)n(CCCO)c(=O)c2c1cc(C1=CCCC1)n2Cc1ccc(Cl)cc1` [Example E1, 5-(4-chlorobenzyl)-6-(cyclopent-1-en-1-yl)-3-(3-hydroxypropyl)-1-methyl-1,5-dihydro-2H-pyrrolo[3,2-d]pyrimidine-2,4(3H)-dione], the concentration for half-maximal inhibition (IC50) under setting [1] came out at 69.4 nM.
With `Cn1c(=O)n(CCCO)c(=O)c2c1cc(C1CCCC1)n2Cc1ccc(Cl)cc1` [Example E2, 5-(4-chlorobenzyl)-6-cyclopentyl-3-(3-hydroxypropyl)-1-methyl-1,5-dihydro-2H-pyrrolo[3,2-d]pyrimidine-2,4(3H)-dione], the 50% inhibitory concentration (IC50) under setting [1] was 112 nM.
Regarding `CC(C)OC1CC=C(c2nc3c(c(=O)n(CCCO)c(=O)n3C)n2Cc2ccc(Cl)cc2)CC1` (stereo not shown) [Example E8, 7-(4-chlorobenzyl)-1-(3-hydroxypropyl)-8-(4-isopropoxycyclohex-1-en-1-yl)-3-methyl-3,7-dihydro-1H-purine-2,6-dione], the IC50 under setting [1] was determined as 19.3 nM.
The same measure, in the same setting: the same measure for `Cn1c(=O)n(CCCO)c(=O)c2c1nc(C1=CCC(C)(C)CC1)n2Cc1ccc(Cl)cc1` [Example E11, 7-(4-chlorobenzyl)-8-(4,4-dimethylcyclohex-1-en-1-yl)-1-(3-hydroxypropyl)-3-methyl-3,7-dihydro-1H-purine-2,6-dione]: 8.79 nM.
Still for that read-out and setting: the same measure for `Cn1c(=O)n(CCCO)c(=O)c2c1nc(C1CCC(C(F)(F)F)CC1)n2Cc1ccc(Cl)cc1` (stereo not shown) [Example E12, 7-(4-chlorobenzyl)-1-(3-hydroxypropyl)-3-methyl-8-(4-(trifluoromethyl)cyclohexyl)-3,7-dihydro-1H-purine-2,6-dione]: 13.5 nM.
Turning to `Cn1c(=O)n(CCCO)c(=O)c2c1nc(C1CCC3(CC1)OCCO3)n2Cc1ccc(Cl)cc1` [Example E13, 7-(4-chlorobenzyl)-1-(3-hydroxypropyl)-3-methyl-8-(1,4-dioxacyclo[4.5]dec-8-yl)-3,7-dihydro-1H-purine-2,6-dione], the 50% inhibitory concentration (IC50) is 82.1 nM.
Turning to `CC(C)n1c(=O)n(CCCO)c(=O)c2c1nc(C1CC1C1CCCC1)n2Cc1ccc(Cl)cc1` (stereo not shown) [Example E15, 7-(4-chlorobenzyl)-8-(2-cyclopentylcyclopropyl)-1-(3-hydroxypropyl)-3-isopropyl-3,7-dihydro-1H-purine-2,6-dione], the IC50 under setting [1] turned out to be 76 nM.
Consider `Cn1c(=O)n(CCCO)c(=O)c2c1nc(/C=N/OC(C)(C)C)n2Cc1ccc(Cl)cc1` [Example E18, (E)-7-(4-chlorobenzyl)-1-(3-hydroxypropyl)-3-methyl-2,6-dioxo-2,3,6,7-tetrahydro-1H-purine-8-carbaldehyde-O-(tert-butyl)oxime], for which the IC50 under setting [1] was determined as 43.8 nM.
Turning to `Cn1c(=O)n(CCCO)c(=O)c2c1nc(C1=Cc3ccccc3C1)n2Cc1ccc(Cl)cc1` [Example E20, 7-(4-chlorobenzyl)-1-(3-hydroxypropyl)-8-(1H-inden-2-yl)-3-methyl-3,7-dihydro-1H-purine-2,6-dione], the IC50 under setting [1] came to 83.8 nM.
Still for that read-out and setting: then `COC1(c2nc3c(c(=O)n(CCCO)c(=O)n3C)n2Cc2ccc(Cl)cc2)CCC(C(F)(F)F)CC1` (stereo not shown) [Example E22, 7-(4-chlorobenzyl)-1-(3-hydroxypropyl)-8-(1-methoxy-4-(trifluoromethyl)cyclohexyl)-3-methyl-3,7-dihydro-1H-purine-2,6-dione], with 198 nM.
Take `Cn1c(=O)n(CCCO)c(=O)c2c1nc(C1(O)CCC(C(F)(F)F)CC1)n2Cc1ccc(Cl)cc1` (stereo not shown) [Example E23, 7-(4-chlorobenzyl)-8-(1-hydroxy-4-(trifluoromethyl)cyclohexyl)-1-(3-hydroxypropyl)-3-methyl-3,7-dihydro-1H-purine-2,6-dione]: the IC50 under setting [1] turned out to be 322 nM.
Still for that read-out and setting: the same measure for `C/C(=N\OC(C)(C)C)c1nc2c(c(=O)n(CCCO)c(=O)n2C)n1Cc1ccc(Cl)cc1` [Example E27, (E)-8-(1-(tert-butoxyimino)ethyl)-7-(4-chlorobenzyl)-1-(3-hydroxypropyl)-3-methyl-3,7-dihydro-1H-purine-2,6-dione]: 64.7 nM; for `CCC1CCC(F)(c2nc3c(c(=O)n(CCCO)c(=O)n3C)n2Cc2ccc(Cl)cc2)CC1` (stereo not shown) [Example E30, 7-(4-chlorobenzyl)-8-(4-ethyl-1-fluorocyclohexyl)-1-(3-hydroxypropyl)-3-methyl-3,7-dihydro-1H-purine-2,6-dione]: 281 nM; for `Cn1c(=O)n(CCCO)c(=O)c2c1nc(C1=CC(F)C(C)(C)CC1)n2Cc1ccc(Cl)cc1` (stereo not shown) [Example E34]: 49.1 nM.
Still for that read-out and setting: the same measure for `CC1CCC(F)(c2nc3c(c(=O)n(CCCO)c(=O)n3C)n2Cc2ccc(Cl)cc2)CC1` (stereo not shown) [Example E39, 7-(4-chlorobenzyl)-8-(1-fluoro-4-methylcyclohexyl)-1-(3-hydroxypropyl)-3-methyl-3,7-dihydro-1H-purine-2,6-dione]: 4.63 nM; for `Cn1c(=O)n(CCCO)c(=O)c2c1nc(C1(F)CCC(C#N)CC1)n2Cc1ccc(Cl)cc1` (stereo not shown) [Example E40, 4-(7-(4-chlorobenzyl)-1-(3-hydroxypropyl)-3-methyl-2,6-dioxo-2,3,6,7-tetrahydro-1H-purin-8-yl)-4-fluorocyclohexane-1-carbonitrile]: 3.7 nM; for `Cn1c(=O)n(CCCO)c(=O)c2c1nc(C1=CCC(C(F)(F)F)CC1)n2Cc1ccc(Cl)cc1` (stereo not shown) [Example E41, 7-(4-chlorobenzyl)-1-(3-hydroxypropyl)-3-methyl-8-(4-(trifluoromethyl)cyclohex-1-en-1-yl)-3,7-dihydro-1H-purine-2,6-dione]: 55.5 nM.
On the same count and under the same terms, then `CCn1c(=O)n(CCCO)c(=O)c2c1nc(C1(F)CCC(C(F)(F)F)CC1)n2Cc1ccc(Cl)c(F)c1` (stereo not shown) [Example E51, 7-(4-chloro-3-fluorobenzyl)-3-ethyl-8-(1-fluoro-4-(trifluoromethyl)cyclohexyl)-1-(3-hydroxypropyl)-3,7-dihydro-1H-purine-2,6-dione], with 3.19 nM; and `CC(C)n1c(=O)n(CCCO)c(=O)c2c1nc(C1(F)CCC(C(F)(F)F)CC1)n2Cc1ccc(Cl)cc1` (stereo not shown) [Example E53, 7-(4-chlorobenzyl)-8-(1-fluoro-4-(trifluoromethyl)cyclohexyl)-1-(3-hydroxypropyl)-3-isopropyl-3,7-dihydro-1H-purine-2,6-dione], with 41.4 nM; and `CCn1c(=O)n(CCCO)c(=O)c2c1nc(C1=CCC(C(F)(F)F)CC1)n2Cc1ccc(Cl)c(F)c1` (stereo not shown) [Example E57, 7-(4-chloro-3-fluorobenzyl)-3-ethyl-1-(3-hydroxypropyl)-8-(4-(trifluoromethyl)cyclohex-1-en-1-yl)-3,7-dihydro-1H-purine-2,6-dione], with 52.9 nM.
With `Cn1c(=O)n(CCCO)c(=O)c2c1nc(C1(F)CCC(C(F)(F)F)CC1)n2Cc1ccc(F)cc1F` (stereo not shown) [Example E65, 7-(2,4-difluorobenzyl)-8-(1-fluoro-4-(trifluoromethyl)cyclohexyl)-1-(3-hydroxypropyl)-3-methyl-3,7-dihydro-1H-purine-2,6-dione], the half-inhibitory concentration (IC50) under setting [1] is 2.85 nM.
Still for that read-out and setting: the same measure for `Cn1c(=O)n(CCCO)c(=O)c2c1nc(C1(F)CCC(C(F)(F)F)CC1)n2Cc1ccc(F)cc1Cl` (stereo not shown) [Example E67, 7-(2-chloro-4-fluorobenzyl)-8-(1-fluoro-4-(trifluoromethyl)cyclohexyl)-1-(3-hydroxypropyl)-3-methyl-3,7-dihydro-1H-purine-2,6-dione]: 18.9 nM.
